Source: patent US20250276984A1, “SOLID STATE FORMS OF HER2 INHIBITORS” (Iambic Therapeutics, Inc., priority 2024, published 2025)
Converted amounts (≈) assume the structure as drawn.

How the values were obtained:
[1] = Dynamic vapor sorption (DVS); assay type: physicochemical; design: Hysteresis: unit not given here
Experimental: By DVS, a weight gain of 2.8 weight %, consistent with a gain of 0.9 mol water, was observed from 6% to 95% RH. A complete desorption was observed from 95% to 6% RH. No significant hysteresis was observed. The resulting crystalline material was analyzed by XRPD and shown to the Form A.

[2] = Solubility estimated by solvent aliquot addition at ambient temperature; assay type: physicochemical; details: thermodynamic from solid
Description: Solubilities were estimated by solvent aliquot addition at ambient temperature and reported to the nearest whole number; if complete dissolution was achieved by one aliquot addition, the value is reported as “>”; if solids were present, the value is reported as “<”. The actual solubility may be larger than the value calculated because of the use of solvent aliquots that were too large or due to a slow rate of dissolution.

[3] = Cycle 1, target RH 95.0%, sample RH 95.4%

## Cc1cc(Nc2ncnn3ccc(C4CCN(C(=O)/C=C/CN(C)C)CC4)c23)ccc1Oc1ccn2ncnc2c1 [Compound 1 Form A, (E)-1-(4-(4-((4-([1,2,4]triazolo[1,5-a]pyridin-7-yloxy)-3-methylphenyl)amino)pyrrolo[2,1-f][1,2,4]triazin-5-yl)piperidin-1-yl)-4-(dimethylamino)but-2-en-1-one]
[1]; Cycle 1, target RH 5.0%, sample RH 5.5%
  Sorp Mass Change: 0.004%
[1]; Cycle 1, target RH 5.0%, sample RH 5.8%
  Desorp Mass Change: −0.017%
[1]; Cycle 1, target RH 15.0%
  Hysteresis: −0.006
[1]; Cycle 1, target RH 15.0%, sample RH 15.3%
  Desorp Mass Change: 0.271%
[1]; Cycle 1, target RH 15.0%, sample RH 15.5%
  Sorp Mass Change: 0.277%
[1]; Cycle 1, target RH 25.0%
  Hysteresis: 0.039
[1]; Cycle 1, target RH 25.0%, sample RH 24.6%
  Sorp Mass Change: 0.609%
[1]; Cycle 1, target RH 25.0%, sample RH 25.0%
  Desorp Mass Change: 0.648%
[1]; Cycle 1, target RH 35.0%
  Hysteresis: 0.075
[1]; Cycle 1, target RH 35.0%, sample RH 34.3%
  Sorp Mass Change: 1.034%
[1]; Cycle 1, target RH 35.0%, sample RH 34.8%
  Desorp Mass Change: 1.109%
[1]; Cycle 1, target RH 45.0%
  Hysteresis: 0.104
[1]; Cycle 1, target RH 45.0%, sample RH 44.4%
  Sorp Mass Change: 1.470%
[1]; Cycle 1, target RH 45.0%, sample RH 44.9%
  Desorp Mass Change: 1.573%
[1]; Cycle 1, target RH 55.0%
  Hysteresis: 0.123
[1]; Cycle 1, target RH 55.0%, sample RH 54.3%
  Sorp Mass Change: 1.811%
[1]; Cycle 1, target RH 55.0%, sample RH 54.8%
  Desorp Mass Change: 1.934%
[1]; Cycle 1, target RH 65.0%
  Hysteresis: 0.112
[1]; Cycle 1, target RH 65.0%, sample RH 64.4%
  Sorp Mass Change: 2.087%
[1]; Cycle 1, target RH 65.0%, sample RH 64.9%
  Desorp Mass Change: 2.199%
[1]; Cycle 1, target RH 75.0%
  Hysteresis: 0.116
[1]; Cycle 1, target RH 75.0%, sample RH 74.5%
  Sorp Mass Change: 2.315%
[1]; Cycle 1, target RH 75.0%, sample RH 75.1%
  Desorp Mass Change: 2.431%
[1]; Cycle 1, target RH 85.0%
  Hysteresis: 0.096
[1]; Cycle 1, target RH 85.0%, sample RH 85.1%
  Sorp Mass Change: 2.559%
[1]; Cycle 1, target RH 85.0%, sample RH 86.2%
  Desorp Mass Change: 2.656%
[1]; [3]
  Desorp Mass Change: 2.849%
  Sorp Mass Change: 2.849%
[1]; from 6% to 95% RH
  water gain consistent with DVS weight gain: 0.9 mol water
  weight gain by DVS: 2.8 weight %
[2]; aqueous with cosolvent or surfactant or cyclodextrin, 10:90 dioxane/water v/v
  solubility: < 1 mg/mL
[2]; aqueous with cosolvent or surfactant or cyclodextrin, 20:80 MeOH/water v/v
  solubility: < 1 mg/mL
[2]; aqueous with cosolvent or surfactant or cyclodextrin, 35:65 THF/water v/v
  solubility: 17 mg/mL (≈ 30.8 mM)
[2]; aqueous with cosolvent or surfactant or cyclodextrin, 50:50 ACN/water v/v
  solubility: > 72 mg/mL
[2]; aqueous with cosolvent or surfactant or cyclodextrin, 50:50 DMAc/water v/v
  solubility: 10 mg/mL (≈ 18.1 mM)
[2]; aqueous with cosolvent or surfactant or cyclodextrin, 50:50 MeOH/water v/v
  solubility: 4 mg/mL (≈ 7.25 mM)
[2]; aqueous with cosolvent or surfactant or cyclodextrin, 50:50 THF/water v/v
  solubility: > 31 mg/mL
[2]; aqueous with cosolvent or surfactant or cyclodextrin, 50:50 acetone/water v/v
  solubility: 24 mg/mL (≈ 43.5 mM)
[2]; aqueous with cosolvent or surfactant or cyclodextrin, 50:50 dioxane/water v/v
  solubility: 29 mg/mL (≈ 52.6 mM)
[2]; organic solvent or mixture, 2-MeTHF
  solubility: 5 mg/mL (≈ 9.06 mM)
[2]; organic solvent or mixture, 10:90 chloroform/IPA v/v
  solubility: 27 mg/mL (≈ 48.9 mM)
[2]; organic solvent or mixture, 20:80 MeOH/EtOAc v/v
  solubility: > 51 mg/mL
[2]; organic solvent or mixture, 30:70 DCM/toluene v/v
  solubility: 9 mg/mL (≈ 16.3 mM)
[2]; organic solvent or mixture, 30:70 DMAc/MTBE v/v
  solubility: 29 mg/mL (≈ 52.6 mM)
[2]; organic solvent or mixture, 30:70 EtOH/toluene v/v
  solubility: > 88 mg/mL
[2]; organic solvent or mixture, 50:50 DCM/toluene v/v
  solubility: 50 mg/mL (≈ 90.6 mM)
[2]; organic solvent or mixture, 50:50 DMAc/toluene v/v
  solubility: > 28 mg/mL
[2]; organic solvent or mixture, 50:50 EtOAc/IPA v/v
  solubility: 17 mg/mL (≈ 30.8 mM)
[2]; organic solvent or mixture, 50:50 EtOAc/MIBK v/v
  solubility: 4 mg/mL (≈ 7.25 mM)
[2]; organic solvent or mixture, 70:30 THF/heptane v/v
  solubility: 10 mg/mL (≈ 18.1 mM)
[2]; organic solvent or mixture, ACN
  solubility: 7 mg/mL (≈ 12.7 mM)
[2]; organic solvent or mixture, Acetone
  solubility: 15 mg/mL (≈ 27.2 mM)
[2]; organic solvent or mixture, DCM
  solubility: > 88 mg/mL
[2]; organic solvent or mixture, DMAc
  solubility: > 110 mg/mL
[2]; organic solvent or mixture, EtOAc
  solubility: 3 mg/mL (≈ 5.44 mM)
[2]; organic solvent or mixture, IPA
  solubility: 3 mg/mL (≈ 5.44 mM)
[2]; organic solvent or mixture, MIBK
  solubility: 3 mg/mL (≈ 5.44 mM)
[2]; organic solvent or mixture, MTBE
  solubility: < 1 mg/mL
[2]; organic solvent or mixture, MeOH
  solubility: > 116 mg/mL
[2]; organic solvent or mixture, THF
  solubility: 38 mg/mL (≈ 68.9 mM)
[2]; organic solvent or mixture, chloroform
  solubility: > 100 mg/mL
[2]; organic solvent or mixture, cyclohexane
  solubility: < 1 mg/mL
[2]; organic solvent or mixture, dioxane
  solubility: 32 mg/mL (≈ 58 mM)
[2]; organic solvent or mixture, heptane
  solubility: < 2 mg/mL
[2]; organic solvent or mixture, toluene
  solubility: < 1 mg/mL
[2]; water
  solubility: < 1 mg/mL
